Measurements from US8415469B2, “Compounds and methods for kinase modulation, and indications therefor” (Plexxikon Inc., priority 2005, dated 2013).

Tests used:
Type in all cases: biochemical
Kdr = biological target: T1, Kdr (Homo sapiens, UniProt P35968); assay: Z'-Lyte FRET kinase assay (Invitrogen), Kdr; details: read-out: IC50, activity toward kinase Kdr
T1 construct: purchased Invitrogen (assay run by Invitrogen)

Irak4 = biological target: T2, Irak4 (Homo sapiens, UniProt Q9NWZ3); assay: Z'-Lyte FRET kinase assay (Invitrogen), Irak4; details: read-out: IC50, activity toward kinase Irak4
T2 construct: purchased Invitrogen (assay run by Invitrogen)
T2 sequence (Q9NWZ3 1-460): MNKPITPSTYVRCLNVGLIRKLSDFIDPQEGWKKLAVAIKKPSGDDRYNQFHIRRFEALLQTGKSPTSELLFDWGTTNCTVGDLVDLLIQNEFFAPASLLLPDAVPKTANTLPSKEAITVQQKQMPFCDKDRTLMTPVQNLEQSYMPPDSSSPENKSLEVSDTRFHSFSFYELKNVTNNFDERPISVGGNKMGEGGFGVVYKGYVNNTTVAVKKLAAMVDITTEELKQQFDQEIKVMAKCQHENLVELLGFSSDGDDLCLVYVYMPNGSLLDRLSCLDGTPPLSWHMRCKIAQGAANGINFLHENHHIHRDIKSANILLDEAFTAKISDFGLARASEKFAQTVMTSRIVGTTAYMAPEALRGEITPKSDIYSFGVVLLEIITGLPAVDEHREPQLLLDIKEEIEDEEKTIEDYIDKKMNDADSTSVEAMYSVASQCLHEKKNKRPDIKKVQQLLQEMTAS
Text: The effect of potential modulators of kinase activity can be measured in a variety of different assays known in the art. For example, direct radiometric, indirect FRET or AlphaScreen assays may be used to assess the level of phosphorylation of a substrate in the presence of test compounds in order to determine the inhibitory affect of the compound on the kinase. Invitrogen (Carlsbad, Calif.) uses a FRET based assay for Btk, EGFR, EphB2, Flt3, lrak4, Kdr, MAP2K1, MAPKAPK2, PDGFRB, PKC theta, Stk6 and Yes. For these assays, compounds of the invention were screened by Invitrogen using Z′-Lyte™ kinase assay.
Briefly, the Invitrogen kinase assay involves use of a specific peptide substrate optimized for each kinase, containing a fluorophore at each end that make up the FRET pair. The peptide sensitivity to proteolytic cleavage depends on phosphorylation of the peptide. Non-phosphorylated peptide is cleaved by a protease while peptide phosphorylated by the kinase is not cleaved. Cleavage of the peptide disrupts the FRET between the donor (coumarin) and acceptor (fluorescein) fluorophores, resulting in an increase in the ratio of donor emission to acceptor emission. The emission ratio of coumarin to fluorescein is used to assess the reaction progress. The extent of phosphorylation is determined from the emission ratio, which is low when the kinase is active (phosphorylated peptide is not cleaved, FRET pair connected) or higher for inhibited kinase (non-phosphorylated peptide is cleaved, FRET pair separated). Thus, the assay involves a kinase reaction in the presence of varying concentrations of a given compound, a development reaction with site specific protease, and detection of the fluorescent emission ratio of coumarin and fluorscein. […] Reaction conditions for each kinase are determined to provide optimal reaction times, incubation temperature, kinase and ATP concentrations. Test samples are made up in 1× kinase buffer (50 mM HEPES pH 7.5, 50 mM MgCl2, 5 mM EGTA, 0.05% BRIJ-35) and compound at desired concentration prepared in DMSO such that the final DMSO is 1%. […] Typically, assay plates are prepared to 10 μl final volume per sample, adding 2.5 μl of compound at 4× the desired concentration in 4% DMSO (serial dilution of compound provides concentration curve), 5 μl of the desired kinase mixed with Z′-LYTE™ peptide substrate (2× in 2× kinase buffer, final peptide at 2 μM), and 2.5 μl of 4×ATP solution. All kinase except for MAP2K1 were at 10 μM ATP in the kinase reaction, while MAP2K1 was at 100 μM. Samples are mixed and the kinase reaction is incubated 1 hour at room temperature, after which 5 μl of development solution is added and mixed. After incubation for another 1 hour at room temperature, 5 μl of stop reagent is added to each sample and mixed. The fluorescence signals are measured to determine the emission ratio.

MAP4K4 = MAP4K4 (Homo sapiens, UniProt O95819); assay: AlphaScreen kinase assay, MAP4K4; details: read-out: IC50, activity toward kinase MAP4K4
Abl = biological target: T3, Abl (Homo sapiens, UniProt P00519); assay: AlphaScreen kinase assay, Abl; details: read-out: activity toward kinase Abl, IC50
T3 construct: P1121. pET-SPEC BI-PTP Abl G227-V515-X; His6 (N); made in house; host or cells: E. coli (PTP1B co-expressed)
T3 sequence (P00519 with tags, fused parts or gaps): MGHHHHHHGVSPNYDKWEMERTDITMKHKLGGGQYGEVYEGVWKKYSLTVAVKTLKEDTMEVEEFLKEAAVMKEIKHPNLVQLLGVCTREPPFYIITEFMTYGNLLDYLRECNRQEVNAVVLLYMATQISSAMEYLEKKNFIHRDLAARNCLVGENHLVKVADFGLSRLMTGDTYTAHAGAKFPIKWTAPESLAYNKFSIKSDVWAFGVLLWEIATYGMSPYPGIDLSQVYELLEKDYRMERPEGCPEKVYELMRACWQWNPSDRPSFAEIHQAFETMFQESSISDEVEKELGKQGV
In short: (§1)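 Kinase activity was measured as phosphorylation of a biotinylated peptide, detected with streptavidin donor and phospho-antibody acceptor beads. Compounds, from 20 mM DMSO stocks, were tested at eight concentrations in 1:3 serial dilution.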

Kit = biological target: T4, Kit (Homo sapiens, UniProt P10721); assay: AlphaScreen kinase assay, Kit; details: read-out: IC50, activity toward kinase Kit
T4 construct: P1332.N6 BI PTP KIT M552-K948-X COD; His6 (N); made in house; host or cells: E. coli (PTP1B co-expressed)

FGFR1 = biological target: T5, FGFR1 (Homo sapiens, UniProt P11362, C488A/C584S); assay: AlphaScreen kinase assay, FGFR1; details: read-out: IC50, activity toward kinase FGFR
T5 construct: P1351.pET N6 BI-PTP FGFR A458-E765-X C488A, C584S; made in house; host or cells: E. coli (PTP1B co-expressed)

Flt1 = biological target: T6, Flt1 (Homo sapiens, UniProt P17948); assay: AlphaScreen kinase assay, Flt1; details: read-out: IC50, activity toward kinase Flt1
T6 construct: P1826.pETN6 BI-PTP FLT1 M799-D1165-X WT; His6 (N); made in house; host or cells: E. coli (PTP1B co-expressed)
T6 sequence (P17948 with tags, fused parts or gaps): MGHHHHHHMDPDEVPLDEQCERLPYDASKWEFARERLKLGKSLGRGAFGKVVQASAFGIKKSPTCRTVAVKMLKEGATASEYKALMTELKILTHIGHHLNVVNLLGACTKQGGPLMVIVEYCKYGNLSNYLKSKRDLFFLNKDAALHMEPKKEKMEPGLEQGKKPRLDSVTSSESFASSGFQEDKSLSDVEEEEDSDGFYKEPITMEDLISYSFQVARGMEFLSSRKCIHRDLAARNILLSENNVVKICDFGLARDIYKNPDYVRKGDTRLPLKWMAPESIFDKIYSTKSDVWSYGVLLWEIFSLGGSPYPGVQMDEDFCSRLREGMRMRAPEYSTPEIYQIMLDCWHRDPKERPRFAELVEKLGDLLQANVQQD

Flt4 = biological target: T7, Flt4 (Homo sapiens, UniProt P35916); assay: AlphaScreen kinase assay, Flt4; details: read-out: IC50, activity toward kinase Flt4
T7 construct: purchased ProQinase GmbH (Freiburg, Germany)
In short: as §1

Ret = biological target: T8, Ret (Homo sapiens, UniProt P07949); assay: AlphaScreen kinase assay, Ret; details: read-out: IC50, activity toward kinase Ret
T8 construct: P1378.pET-SF BI-PTP RET H661-R1012 HIS; made in house
T8 sequence (P07949 with tags, fused parts or gaps): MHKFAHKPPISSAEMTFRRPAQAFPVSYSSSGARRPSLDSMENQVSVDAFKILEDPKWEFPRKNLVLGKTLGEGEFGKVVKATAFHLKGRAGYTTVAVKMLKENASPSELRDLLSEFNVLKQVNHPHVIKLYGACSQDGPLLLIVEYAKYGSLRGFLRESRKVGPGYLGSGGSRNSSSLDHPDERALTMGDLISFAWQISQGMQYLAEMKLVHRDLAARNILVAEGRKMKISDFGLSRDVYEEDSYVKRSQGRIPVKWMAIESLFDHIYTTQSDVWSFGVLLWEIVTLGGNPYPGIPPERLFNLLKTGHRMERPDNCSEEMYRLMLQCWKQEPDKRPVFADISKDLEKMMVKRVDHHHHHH

p38 = biological target: T9, p38 (Homo sapiens, UniProt Q16539); assay: AlphaScreen kinase assay, p38; details: read-out: IC50, activity toward kinase p38
T9 construct: P4292.pET15S P38A M1-S360-X MKK6DD; His6 with thrombin site (N); made in house

Stk6 = biological target: T10, Stk6 (Homo sapiens, UniProt O14965); assay: Z'-Lyte FRET kinase assay (Invitrogen), Stk6; details: read-out: IC50, activity toward kinase Stk6
T10 construct: purchased Invitrogen (Carlsbad, Calif.), screening service
T10 sequence (O14965 1-403): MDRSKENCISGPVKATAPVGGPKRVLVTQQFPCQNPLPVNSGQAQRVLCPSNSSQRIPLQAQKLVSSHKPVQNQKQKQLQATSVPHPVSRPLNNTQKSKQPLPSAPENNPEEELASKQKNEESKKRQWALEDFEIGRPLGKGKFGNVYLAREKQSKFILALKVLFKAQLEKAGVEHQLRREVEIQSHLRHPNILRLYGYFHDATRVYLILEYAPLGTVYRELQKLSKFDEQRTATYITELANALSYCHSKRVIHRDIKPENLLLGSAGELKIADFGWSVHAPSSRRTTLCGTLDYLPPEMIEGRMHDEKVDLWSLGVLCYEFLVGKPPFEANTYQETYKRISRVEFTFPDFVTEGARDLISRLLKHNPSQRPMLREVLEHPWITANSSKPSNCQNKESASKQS

MAP2K1 = biological target: T11, MAP2K1 (Homo sapiens, UniProt Q02750); assay: Z'-Lyte FRET kinase assay (Invitrogen), MAP2K1; details: read-out: IC50, activity toward kinase MAP2K1
T11 construct: purchased Invitrogen (assay run by Invitrogen)

Met = biological target: T12, Met (Homo sapiens, UniProt P08581); assay: AlphaScreen kinase assay, Met; details: read-out: IC50, activity toward kinase Met
T12 construct: P1818.pETN6 BI-PTP MET G1056-G1364-X WT; His6 (N); made in house; host or cells: E. coli (PTP1B co-expressed)
In short: as §1

IKK beta = biological target: T13, IKK beta (Homo sapiens, UniProt O14920); assay: AlphaScreen kinase assay, IKK beta; details: read-out: IC50, activity toward kinase IKK beta
T13 sequence (O14920 1-756): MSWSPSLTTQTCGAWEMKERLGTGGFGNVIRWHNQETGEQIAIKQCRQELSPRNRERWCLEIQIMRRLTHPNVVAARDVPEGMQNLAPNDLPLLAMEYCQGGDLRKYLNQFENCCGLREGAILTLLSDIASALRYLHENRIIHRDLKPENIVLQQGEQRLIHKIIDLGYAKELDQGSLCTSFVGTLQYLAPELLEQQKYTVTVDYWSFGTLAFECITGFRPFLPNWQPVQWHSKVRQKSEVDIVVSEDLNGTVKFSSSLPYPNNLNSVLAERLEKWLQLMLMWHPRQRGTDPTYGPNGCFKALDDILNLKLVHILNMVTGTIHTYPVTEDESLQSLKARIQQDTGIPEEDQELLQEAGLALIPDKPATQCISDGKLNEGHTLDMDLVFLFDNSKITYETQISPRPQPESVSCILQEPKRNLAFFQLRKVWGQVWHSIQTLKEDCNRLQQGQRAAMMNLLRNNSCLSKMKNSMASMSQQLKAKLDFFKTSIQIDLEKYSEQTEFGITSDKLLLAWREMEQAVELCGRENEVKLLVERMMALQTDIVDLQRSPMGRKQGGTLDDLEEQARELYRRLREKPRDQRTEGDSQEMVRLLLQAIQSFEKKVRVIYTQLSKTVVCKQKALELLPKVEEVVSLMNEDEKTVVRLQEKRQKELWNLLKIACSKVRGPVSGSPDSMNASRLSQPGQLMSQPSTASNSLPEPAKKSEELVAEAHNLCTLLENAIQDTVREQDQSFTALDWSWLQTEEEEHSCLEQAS

T1 sequence (P35968 20-1356): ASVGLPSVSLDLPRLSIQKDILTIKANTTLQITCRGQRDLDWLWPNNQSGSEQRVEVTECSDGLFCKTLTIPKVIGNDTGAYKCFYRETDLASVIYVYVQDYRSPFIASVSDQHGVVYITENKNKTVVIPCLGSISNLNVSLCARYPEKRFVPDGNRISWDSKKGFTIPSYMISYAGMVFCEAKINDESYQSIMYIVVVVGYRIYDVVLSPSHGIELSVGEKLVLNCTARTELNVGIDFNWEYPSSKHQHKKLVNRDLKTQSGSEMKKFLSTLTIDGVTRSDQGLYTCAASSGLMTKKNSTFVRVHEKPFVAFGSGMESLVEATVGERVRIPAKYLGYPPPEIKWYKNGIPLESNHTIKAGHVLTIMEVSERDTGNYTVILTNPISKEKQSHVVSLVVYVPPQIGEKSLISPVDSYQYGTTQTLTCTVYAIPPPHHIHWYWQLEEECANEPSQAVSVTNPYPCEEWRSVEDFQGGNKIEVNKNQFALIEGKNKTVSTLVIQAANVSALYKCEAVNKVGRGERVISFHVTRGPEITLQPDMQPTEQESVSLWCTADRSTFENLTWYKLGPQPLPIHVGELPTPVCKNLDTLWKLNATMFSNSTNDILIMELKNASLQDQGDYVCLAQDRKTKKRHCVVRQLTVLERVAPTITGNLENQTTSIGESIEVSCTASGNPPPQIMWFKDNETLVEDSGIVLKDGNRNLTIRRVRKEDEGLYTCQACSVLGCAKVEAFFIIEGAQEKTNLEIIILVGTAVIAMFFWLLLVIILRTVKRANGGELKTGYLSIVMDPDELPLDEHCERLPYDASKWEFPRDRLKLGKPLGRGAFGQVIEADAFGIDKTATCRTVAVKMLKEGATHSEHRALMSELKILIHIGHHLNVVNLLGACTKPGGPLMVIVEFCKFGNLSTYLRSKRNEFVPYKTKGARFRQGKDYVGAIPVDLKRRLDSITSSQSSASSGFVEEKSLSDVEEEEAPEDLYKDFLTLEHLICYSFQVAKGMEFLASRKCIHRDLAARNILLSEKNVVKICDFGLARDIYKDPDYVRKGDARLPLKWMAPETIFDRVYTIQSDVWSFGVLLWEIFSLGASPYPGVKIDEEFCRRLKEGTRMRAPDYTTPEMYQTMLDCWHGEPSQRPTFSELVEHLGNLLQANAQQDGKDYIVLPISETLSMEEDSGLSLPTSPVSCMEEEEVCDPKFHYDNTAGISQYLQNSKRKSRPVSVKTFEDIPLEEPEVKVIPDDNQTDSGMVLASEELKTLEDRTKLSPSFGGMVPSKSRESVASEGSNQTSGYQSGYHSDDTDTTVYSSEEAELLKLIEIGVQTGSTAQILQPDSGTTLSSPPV
T9 sequence (Q16539 with tags, fused parts or gaps): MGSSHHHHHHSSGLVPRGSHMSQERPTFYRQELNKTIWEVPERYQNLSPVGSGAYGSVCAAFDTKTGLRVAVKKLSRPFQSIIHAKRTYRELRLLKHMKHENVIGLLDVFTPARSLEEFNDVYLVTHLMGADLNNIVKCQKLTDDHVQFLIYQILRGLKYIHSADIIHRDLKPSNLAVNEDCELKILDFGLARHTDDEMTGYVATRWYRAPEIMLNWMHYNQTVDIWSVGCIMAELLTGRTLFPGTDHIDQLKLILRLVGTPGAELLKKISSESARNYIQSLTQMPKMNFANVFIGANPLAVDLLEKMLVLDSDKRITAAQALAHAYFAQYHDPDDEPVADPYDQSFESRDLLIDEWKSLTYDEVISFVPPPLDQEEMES
T11 sequence (Q02750 whole entry): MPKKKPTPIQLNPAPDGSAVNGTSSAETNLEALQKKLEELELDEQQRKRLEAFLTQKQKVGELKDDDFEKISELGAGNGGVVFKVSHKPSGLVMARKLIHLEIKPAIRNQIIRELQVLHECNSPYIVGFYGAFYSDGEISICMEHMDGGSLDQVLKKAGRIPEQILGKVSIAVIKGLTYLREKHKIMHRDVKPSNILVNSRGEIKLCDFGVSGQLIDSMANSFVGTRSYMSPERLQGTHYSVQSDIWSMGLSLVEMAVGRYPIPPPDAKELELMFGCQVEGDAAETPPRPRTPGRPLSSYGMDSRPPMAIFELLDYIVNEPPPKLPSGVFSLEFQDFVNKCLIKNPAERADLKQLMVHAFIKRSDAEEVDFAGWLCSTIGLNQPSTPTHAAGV
T4 sequence (P10721 with tags, fused parts or gaps): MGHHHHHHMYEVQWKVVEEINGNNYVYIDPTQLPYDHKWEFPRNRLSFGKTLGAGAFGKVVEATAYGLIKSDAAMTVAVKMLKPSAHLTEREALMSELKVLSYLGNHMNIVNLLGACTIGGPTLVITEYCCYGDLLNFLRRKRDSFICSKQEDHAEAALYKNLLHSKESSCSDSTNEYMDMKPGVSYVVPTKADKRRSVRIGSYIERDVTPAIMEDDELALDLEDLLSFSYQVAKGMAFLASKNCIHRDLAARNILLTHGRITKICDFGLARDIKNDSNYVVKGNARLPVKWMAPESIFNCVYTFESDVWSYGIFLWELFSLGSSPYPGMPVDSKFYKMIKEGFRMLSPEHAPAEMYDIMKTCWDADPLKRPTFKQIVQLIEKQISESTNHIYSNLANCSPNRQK
Sequence of MAP4K4 (O95819 whole entry): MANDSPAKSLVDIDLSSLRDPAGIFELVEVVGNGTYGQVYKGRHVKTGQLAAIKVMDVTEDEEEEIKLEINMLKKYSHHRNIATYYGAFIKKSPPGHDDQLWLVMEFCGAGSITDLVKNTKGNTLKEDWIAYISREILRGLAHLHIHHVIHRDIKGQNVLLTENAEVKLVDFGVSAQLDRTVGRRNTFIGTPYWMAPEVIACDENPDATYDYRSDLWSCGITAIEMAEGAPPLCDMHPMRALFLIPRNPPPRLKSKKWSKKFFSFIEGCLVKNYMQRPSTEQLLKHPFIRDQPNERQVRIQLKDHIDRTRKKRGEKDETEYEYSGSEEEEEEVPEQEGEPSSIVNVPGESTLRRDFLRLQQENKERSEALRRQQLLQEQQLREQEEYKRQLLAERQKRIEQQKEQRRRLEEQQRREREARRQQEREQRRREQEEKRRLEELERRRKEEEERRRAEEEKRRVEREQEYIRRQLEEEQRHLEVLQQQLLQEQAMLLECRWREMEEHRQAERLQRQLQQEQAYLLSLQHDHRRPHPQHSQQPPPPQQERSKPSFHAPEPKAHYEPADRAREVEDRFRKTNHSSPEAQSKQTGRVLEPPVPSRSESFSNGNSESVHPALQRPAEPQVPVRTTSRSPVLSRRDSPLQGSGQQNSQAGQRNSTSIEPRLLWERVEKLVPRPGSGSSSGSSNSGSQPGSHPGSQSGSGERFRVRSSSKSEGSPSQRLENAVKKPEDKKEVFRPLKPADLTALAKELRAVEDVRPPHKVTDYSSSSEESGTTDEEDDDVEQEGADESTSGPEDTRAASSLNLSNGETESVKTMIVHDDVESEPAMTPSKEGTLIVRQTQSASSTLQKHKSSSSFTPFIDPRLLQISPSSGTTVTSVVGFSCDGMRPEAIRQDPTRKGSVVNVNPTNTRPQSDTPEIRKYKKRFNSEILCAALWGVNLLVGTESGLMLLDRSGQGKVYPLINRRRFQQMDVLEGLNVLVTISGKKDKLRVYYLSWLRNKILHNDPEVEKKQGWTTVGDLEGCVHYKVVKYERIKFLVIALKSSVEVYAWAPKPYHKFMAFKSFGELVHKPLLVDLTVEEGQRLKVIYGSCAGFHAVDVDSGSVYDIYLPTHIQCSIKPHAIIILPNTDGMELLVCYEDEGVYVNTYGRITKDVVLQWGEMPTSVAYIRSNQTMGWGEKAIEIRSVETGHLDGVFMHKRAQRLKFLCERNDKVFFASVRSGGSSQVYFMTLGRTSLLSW
T5 sequence (P11362 458-765 C488A/C584S): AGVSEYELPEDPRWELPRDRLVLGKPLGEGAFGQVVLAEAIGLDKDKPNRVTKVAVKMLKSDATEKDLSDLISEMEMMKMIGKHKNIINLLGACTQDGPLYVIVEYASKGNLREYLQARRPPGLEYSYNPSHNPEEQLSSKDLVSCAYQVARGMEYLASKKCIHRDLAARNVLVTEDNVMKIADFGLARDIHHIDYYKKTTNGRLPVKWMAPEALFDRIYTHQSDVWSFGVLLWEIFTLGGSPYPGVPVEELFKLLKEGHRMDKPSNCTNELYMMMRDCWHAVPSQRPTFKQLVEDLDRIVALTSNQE
T12 sequence (P08581 with tags, fused parts or gaps): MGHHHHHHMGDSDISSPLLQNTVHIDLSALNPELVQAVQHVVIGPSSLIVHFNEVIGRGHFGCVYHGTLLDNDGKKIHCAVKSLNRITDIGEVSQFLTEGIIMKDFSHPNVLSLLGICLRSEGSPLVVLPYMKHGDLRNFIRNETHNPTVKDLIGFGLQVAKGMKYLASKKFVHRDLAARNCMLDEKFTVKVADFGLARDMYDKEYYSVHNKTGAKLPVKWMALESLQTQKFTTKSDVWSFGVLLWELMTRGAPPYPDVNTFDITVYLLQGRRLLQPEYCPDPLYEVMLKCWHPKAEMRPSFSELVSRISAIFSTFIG

Row | IC50 (Kdr) [µM] | IC50 (Irak4) [µM] | IC50 (Kit) [µM] | IC50 (Flt1) [µM] | IC50 (p38) [µM] | IC50 (Stk6) [µM] | IC50 (MAP2K1) [µM] | Structure (SMILES) | also measured
1 | ≤ 10 | ≤ 10 | – | – | – | – | – | c1cnc2[nH]cc(-c3ccncc3)c2c1 [Compound P-0130] | IC50 (MAP4K4): ≤ 10 µM
2 | ≤ 10 | – | ≤ 10 | ≤ 10 | ≤ 10 | – | – | O=C(c1ccccc1F)c1c[nH]c2ncc(-c3cccnc3)cc12 [Compound P-0708] | IC50 (Abl): ≤ 10 µM; IC50 (FGFR1): ≤ 10 µM; IC50 (Flt4): ≤ 10 µM; IC50 (Ret): ≤ 10 µM
3 | ≤ 10 | ≤ 10 | – | ≤ 10 | – | ≤ 10 | – | Nc1cccc(-c2c[nH]c3ncccc23)c1 [Compound P-0091] | –
4 | – | – | ≤ 10 | – | ≤ 10 | – | – | Brc1ccc(/C=C\c2c[nH]c3ncccc23)cc1 [Compound P-0511] | –
5 | ≤ 10 | ≤ 10 | – | – | – | ≤ 10 | ≤ 10 | CC(=O)Nc1cccc(-c2c[nH]c3ncccc23)c1 [Compound P-0076] | IC50 (Met): ≤ 10 µM
6 | ≤ 10 | ≤ 10 | – | – | – | ≤ 10 | ≤ 10 | OCc1cccc(-c2c[nH]c3ncccc23)c1 [Compound P-0087] | IC50 (IKK beta): ≤ 10 µM
